Assay results as given in patent publication US10875874B2, “Ginkgolide B derivative and preparation method and use thereof” (Chengdu Baiyu Ginkgolide Pharmaceuticals Co., Ltd., priority 2015, dated 2020).
Marks after values point to notes of the source that are not given here.

Key:
Assay type in all cases: in vivo, rat
[1] = Weekly food intake of SHR rats; details: captopril 27 mg/kg intragastric
Experimental: (§1) 2.1 Grouping and administration of animals: 112 SHR rats (the female and male SHR rats are half and half, and the female rats are not pregnant) with the body weight of 200-250 g are taken, the rats are enabled to adapt to a laboratory for a period of 5 d, blood pressure is measured once at a day to enable the rats to adapt to the environment and detect stimulation. Then, weighing and numbering are carried out, and the SHR rats are equally divided into 14 groups randomly (each group comprises 8 rats), i.e., an SHR rat model control group, a positive control group (captopril, 27 mg/kg), a BZ large-dose group (120 mg/kg/d), a BZ small-dose group (60 mg/kg/d), a BA large-dose group (120 mg/kg/d), a BA small-dose group (60 mg/kg/d), a BL large-dose group (120 mg/kg/d), a BL small-dose group (60 mg/kg/d), a BM large-dose group (120 mg/kg/d), a BM small-dose group (60 mg/kg/d), a BD large-dose group (120 mg/kg/d), a BD small-dose group (60 mg/kg/d), a GB large-dose group (120 mg/kg/d) and a GB small-dose group (60 mg/kg/d). In addition, 8 healthy Wistar rats are taken as a normal control group. Intragastric administration is performed on the rats of each drug group separately according to the above-mentioned doses by 1 mL/100 g body weight, intragastric administration is performed on the rats of the normal control group and the rats of the SHR rat model control group with an equal volume of distilled water, and administration is performed continuously for 8 weeks.
(§2) 2.2 General state: during observation, conditions such as mind, water drinking, food intake, bowel movement, hair color, body weight and range of motion of rats are observed. Irritable degrees of the rats are divided into III levels: a level I means that the rats are free of obvious response when necks of the rats are seized; a level II means that the rats scream and startle when the necks of the rats are seized; and a level III means that the rats bite or rats of same cages frequently fight when the necks of the rats are seized.
(§3) 3.1 Influence on general state of spontaneously hypertensive rats: the rats of the normal control group are normal in food intake, drinking and motion conditions, sensitive in response, healthy and glossy in hair color, good in mental state and free of any unusual response; the rats of the SHR model group gradually present that back hair is fluffy, clustered and dim, the appetite is reduced, the body weight is reduced, the mind is dispirited and irritable, and the rats are prone to the behaviors of intense resisting, attacking and so on during administration and blood pressure detection, and irritable degrees are mostly changed to a level II and a level III from a level I; and after single administration of ginkgolide B and derivatives thereof, behavioral general state observations of rats of each group are free of obvious difference from those of the model control group.

[2] = Weekly body weight of SHR rats; details: captopril 27 mg/kg intragastric
Experimental: as §1, §2, §3

[3] = test system: spontaneously hypertensive rats (SHR); assay: Caudal artery systolic pressure of spontaneously hypertensive rats, single administration; details: captopril 27 mg/kg intragastric single administration, x ± s, n = 8
Experimental: as §1
(§4) 2.3 Blood pressure measuring: caudal artery systolic pressure of rats is measured with a Bp-6 noninvasive blood pressure measuring system. Under the condition that the rats are calm, the systolic pressure is continuously measured for 3 times, and the average value of the measured systolic pressure is taken as a pressure measuring result. Observation indexes: (1) single-administration pressure lowering effect: blood pressure of the rats is measured before administration and blood pressure conditions are measured 30 min, 60 min, 90 min and 120 min after first administration; and (2) continuous-administration pressure lowering condition: blood pressure is separately measured 30 min after administration at 1 d, 7 d, 13 d, 19 d, 25 d, 35 d, 49 d and 56 d, the blood pressure is repeatedly measured for 3 times at a day, and the average value of obtained values is taken as a final blood pressure value.

[4] = test system: spontaneously hypertensive rats (SHR); assay: Caudal artery systolic pressure of spontaneously hypertensive rats, 8 weeks of continuous medication; details: captopril 27 mg/kg intragastric continuous, x ± s, n = 8
Experimental: as §1, §4

For `C[C@H](CS)C(=O)N1CCC[C@H]1C(=O)O` [Positive control, captopril, reference compound], the “Average dairy food intake” value ([1]; week 0) was 18.4 g/day, the “Average dairy food intake” value ([1]; week 1) was 20.0^▴ g/d and the “Average dairy food intake” value ([1]; week 2) was 19.1^▴ g/d. The “Average dairy food intake” value ([1]; week 3) was 19.5^▴ g/d, the “Average dairy food intake” value ([1]; week 4) was 19.9^▴ g/d and the “Average dairy food intake” value ([1]; week 5) was 21.4^▴▴ g/d. For the same compound, the “Average dairy food intake” value ([1]; week 6) was 23.8^▴▴ g/d, the “Average dairy food intake” value ([1]; week 7) was 24.6^▴▴ g/d and the “Average dairy food intake” value ([1]; week 8) was 26.3^▴▴ g/d. The Body weight ([2]; week 0) was 230.5 g, the Body weight ([2]; week 1) was 235.1 g and the Body weight ([2]; week 2) was 245.4^▴ g. The Body weight ([2]; week 3) was 255.9^▴▴ g, the Body weight ([2]; week 4) was 260.5^▴▴ g and the Body weight ([2]; week 5) was 266.3^▴▴ g. For the same compound, the Body weight ([2]; week 6) was 271.0^▴▴ g, the Body weight ([2]; week 7) was 280.6^▴▴ g and the Body weight ([2]; week 8) was 290.7^▴▴ g. For the same compound, the Systolic pressure ([3]; 30 min) was 149.75 ± 8.09 mmHg, the Systolic pressure ([3]; 60 min) was 140.95 ± 9.50 mmHg and the Systolic pressure ([3]; 90 min) was 139.23 ± 6.04 mmHg. The Systolic pressure ([3]; 120 min) was 134.41 ± 8.31 mmHg, the Systolic pressure ([3]; before administration) was 161.24 ± 11.03 mmHg and the Systolic pressure ([4]; 1 d, 30 min after administration) was 145.17 ± 6.42 mmHg. The Systolic pressure ([4]; 7 d, 30 min after administration) was 142.05 ± 7.24 mmHg, the Systolic pressure ([4]; 13 d, 30 min after administration) was 140.36 ± 9.20 mmHg and the Systolic pressure ([4]; 19 d, 30 min after administration) was 138.39 ± 7.26 mmHg. For the same compound, the Systolic pressure ([4]; 25 d, 30 min after administration) was 145.02 ± 7.30 mmHg, the Systolic pressure ([4]; 35 d, 30 min after administration) was 139.08 ± 6.72 mmHg and the Systolic pressure ([4]; 49 d, 30 min after administration) was 135.47 ± 8.47 mmHg. The Systolic pressure ([4]; 56 d, 30 min after administration) was 130.39 ± 4.65 mmHg and the Systolic pressure ([4]; before administration) was 161.24 ± 11.03 mmHg.
